Test results reported in US20200078459A1, “NEAR INFRARED (NIR) PHOTODYNAMIC THERAPY (PDT) IN COMBINATION WITH CHEMOTHERAPY” (Health Research, Inc., priority 2016, published 2020).
Read-outs that look alike come from different tables or passages of the source.

Tests used:
[1] = system: non-small cell carcinoma (NSCLC) xenografts; settings: for antitumor activity of the alone drug: no PDT
Description: 3) Tumor transplantation: the xenografts used for antitumor activity were transplanted subcutaneously. The treatment was initiated 7-10 days post transplantation. 4) Tumor measurement: two axes (mm) of tumor (L, longest axis; W, shortest axis) were measured with the aid of a Vernier caliper. Tumor weight (mg) was estimated as a formula tumor weight ½ (L×W2). Tumor measurements were taken after the scabbing healed post PDT and at least three times a week for post therapy and twice a week therefore. 5) Tumor regression: complete tumor regression (CR) was defined as the inability to detect tumor by palpation at the initial site of tumor appearance for more than two months post therapy. […] Partial tumor regression (PR) was defined as ≥50% reduction in initial tumor size. Normally, 5 mice per treatment group were included in these experiment groups and repeated at least twice.
PDT of Subcutaneous Tumors—Tumor bearing mice are injected via the tail vein with HPPH or derivatives at doses that are non-toxic unless exposed to light. For tail vein injections, mice were gently restrained in approved holders and their tails were briefly (less than 1 minute) dipped in warm sterile water (˜40° C.). Photosensitizers are injected in a volume of less than 0.2 mL into the tail vein using a 27-gauge needle.
The photosensitizers, at 24 hours (or the optimal time determined by optical imaging) after administration of HPPH or derivatives, the animals were partially restrained allowing leg movement, in specially designed holders without anesthesia.
Tumors are exposed to visible light (1 cm diameter) at power densities of less than 100 mW/cm^2. The light sources are either a dye laser (with a tunable range of 600 to 800 nm), at the optimal excitation wavelength for the individual photosensitizer; or a pulsed laser with a range of 460 to 800 nm. The treatment will vary, depending on the light dose (J/cm^2) and fluence rate (mW/cm^2) required, but usually is for approximately 30 minutes.
After light exposure, the mice are monitored closely for at least 1 hour and then daily until the re-growing tumors reach no more than 2 cm in the greatest dimension or for a maximum of 60 days (post treatment) at which time they are euthanized. All animals will be euthanized within 90 days of tumor implantation.

[2] = system: skin cancer (basal cell carcinoma) early lung cancer and esophageal cancers; assay: Phase I human clinical trials of HPPH; format: in vivo
[3] = Skin phototoxicity of the photosensitizers; format: in vivo; settings: in contrast to most of the clinically approved PS
[4] = system: FaDu head and neck cancer xenografts; assay: PDT response and antitumor activity in SCID mice bearing FaDu head and neck cancer xenografts; format: in vivo
Description: First dose of irinotecan: 1 h post-PDT treatment.
Human head and neck cancer xenografts (FaDu and H&N 85-1)
The treatment was initiated 7-10 post transplantation.

[5] = patients advised to be away from sunlight at least 6-8 weeks after the light treatment; cited from earlier work
[6] = 5 mg/kg weekly×3 doses, in combination with HPPH or Photobac with PDT, 8/10 mice

Molecule: N.N.[Cl][Pt][Cl] [Cisplatin, cisplatin]
- CR (complete tumor regression) [1, 6]: 80%
- antitumor activity of the alone drug ([1]; 5 mg/kg weekly×3 doses): not effective

Molecule: COc1cccc2c1C(=O)c1c(O)c3c(c(O)c1C2=O)C[C@@](O)(C(=O)CO)C[C@@H]3O[C@H]1C[C@H](N)[C@H](O)[C@H](C)O1 [Doxorubicin, doxorubicin]
- CR (complete tumor regression) [1, 6]: 80%
- antitumor activity of the alone drug ([1]; 5 mg/kg weekly×3 doses): not effective
- toxicity ([1]; mouse, in vivo): no significant effects

Molecule: CCCCCCOC(C)c1c(C)c2cc3nc(c4c5[nH]c(cc6nc(cc1[nH]2)C(C)=C6CC)c(C)c5C(=O)C4)[C@@H](CCC(=O)O)[C@@H]3C (some centres unmarked) [HPPH, 3-(1′-hexyloxy)ethyl-3-devinylpyropheopphorbide-a]
- effectiveness in treatment of cancer [2]: effective
- CR (complete tumor regression) ([1]; PDT with HPPH, without chemotherapy): 20%
- skin photo toxicity [3]: do not produce any skin photo toxicity

Molecule: CCc1c2c(nc3ccc(OC(=O)N4CCC(N5CCCCC5)CC4)cc13)-c1cc3c(c(=O)n1C2)COC(=O)[C@]3(O)CC [Irinotecan, irinotecan]
- CR (complete tumor regression) ([4]; 100 mg/kg weekly×4 doses, in combination with HPPH and PDT, 11/15 mice): 73%
- toxicity ([4]; PDT ± chemotherapy, in the used doses): no significant effects
- antitumor activity of the alone drug ([4]; drug alone, 100 mg/kg weekly×4 doses, no PDT): not effective
- CR (complete tumor regression) ([4]; in combination with Photobac (PDT), 3/5 mice): 60%

Molecule: CCCCOC(C)c1c(C)c2cc3nc(c4c5[nH]c(cc6nc(cc1[nH]2)C(C)C6CC)c(C)c5C(=O)N(CCCC)C4=O)C(CCC(=O)OC)C3C (centres unmarked) [Photobac, 3-(1′-butyloxy)ethyl-3-deacetyl-bacteriopurpurin-18-N-butyl-imide methyl ester]
- skin photo toxicity [3]: do not produce any skin photo toxicity

Molecule: Photofrin
- skin phototoxicity in patients [5]: severe skin phototoxicity
